Assay results: patent publication US11034725B2, “Compositions and methods for treating cardiovascular disease” (Genentech, Inc., priority 2016, dated 2021)
Like-named read-outs stand apart in the source and are kept apart here. Bridge positions count the residues as written; N and C are the ends. Square brackets hold non-standard residues; d marks the D form. Peptide text beside a SMILES is read from it. * marks the point of attachment. Trp(6-Cl) = N[C@@H](Cc1c[nH]c2cc(Cl)ccc12)C(=O)O; Trp(6-F) = N[C@@H](Cc1c[nH]c2cc(F)ccc12)C(=O)O; Trp(6-Me) = Cc1ccc2c(C[C@H](N)C(=O)O)c[nH]c2c1; hArg = N=C(N)NCCCC[C@H](N)C(=O)O; Pentanoyl = CCCCC(=O)*; Ahp = NCCCCCCC(=O)O; Butyryl = CCCC(=O)*; Ahx = NCCCCCC(=O)O; Ava = NCCCCC(=O)O

Legend:
PCSK9 = PCSK9 (Homo sapiens, UniProt Q8NBP7); experiment: PCSK9/EGF(A) TR-FRET binding assay; settings: TR-FRET, read-out: PCSK9/EGF(A) IC50
PCSK9Δhelix = biological target: T1, PCSK9Δhelix (Homo sapiens, UniProt Q8NBP7); experiment: PCSK9Δhelix/Ab20 TR-FRET binding assay; settings: for IC50: TR-FRET, read-out: PCSK9Δhelix/Ab20 IC50
T1 construct: Human PCSK9 construct M1-Q692 with an engineered TEV site (residue deletion Y166, R167); made in house; host or cells: CHO

His-EGF(A)-Fc = His-EGF(A)-Fc TR-FRET counterscreen; settings: TR-FRET counterscreen
[1] = Table 8D, disulfide-cyclized extension peptides
[2] = Table 8D, * = some inhibition at highest concentrations, not sufficient to fit an IC50

Chain of PCSK9 (Q8NBP7 153-692): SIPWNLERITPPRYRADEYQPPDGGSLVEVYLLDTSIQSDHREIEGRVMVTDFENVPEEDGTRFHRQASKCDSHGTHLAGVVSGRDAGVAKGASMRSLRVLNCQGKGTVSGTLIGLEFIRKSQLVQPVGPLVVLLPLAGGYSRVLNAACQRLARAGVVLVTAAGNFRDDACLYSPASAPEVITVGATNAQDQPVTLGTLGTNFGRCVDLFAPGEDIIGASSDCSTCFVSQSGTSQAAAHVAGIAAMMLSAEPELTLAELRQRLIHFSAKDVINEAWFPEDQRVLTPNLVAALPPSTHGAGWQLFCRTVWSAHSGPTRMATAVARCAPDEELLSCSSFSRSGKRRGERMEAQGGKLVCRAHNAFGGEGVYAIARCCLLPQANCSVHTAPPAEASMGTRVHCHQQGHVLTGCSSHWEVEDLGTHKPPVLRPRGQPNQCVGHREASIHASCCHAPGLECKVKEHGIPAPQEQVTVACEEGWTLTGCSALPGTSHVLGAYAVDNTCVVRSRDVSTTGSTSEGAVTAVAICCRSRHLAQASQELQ
Chain of PCSK9 (Q8NBP7 31-152 partner limits assumed): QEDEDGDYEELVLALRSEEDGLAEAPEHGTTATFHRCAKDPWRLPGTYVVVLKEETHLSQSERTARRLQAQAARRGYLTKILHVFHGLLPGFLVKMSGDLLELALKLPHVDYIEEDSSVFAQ
T1 sequence (Q8NBP7 with tags, fused parts or gaps limits assumed): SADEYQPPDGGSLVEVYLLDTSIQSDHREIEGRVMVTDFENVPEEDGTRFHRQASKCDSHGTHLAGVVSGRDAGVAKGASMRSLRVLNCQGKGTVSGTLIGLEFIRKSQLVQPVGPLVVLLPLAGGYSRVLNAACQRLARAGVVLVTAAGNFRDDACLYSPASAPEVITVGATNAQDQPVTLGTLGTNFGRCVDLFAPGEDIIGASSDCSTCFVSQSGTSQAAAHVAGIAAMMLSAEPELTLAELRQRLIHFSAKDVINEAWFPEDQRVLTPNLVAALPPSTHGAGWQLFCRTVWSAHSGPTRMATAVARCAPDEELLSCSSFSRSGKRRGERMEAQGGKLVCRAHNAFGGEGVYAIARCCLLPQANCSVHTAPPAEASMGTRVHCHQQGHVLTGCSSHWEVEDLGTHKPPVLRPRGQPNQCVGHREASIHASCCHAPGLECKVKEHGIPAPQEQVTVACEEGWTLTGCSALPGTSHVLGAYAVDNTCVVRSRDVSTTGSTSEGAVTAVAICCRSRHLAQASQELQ
T1 sequence (Q8NBP7 31-152 partner limits assumed): as the sequence (Q8NBP7 31-152 partner limits assumed) above

| Structure (SMILES) | IC50 (PCSK9; [1]) [µM] | IC50 (PCSK9Δhelix; [1]) [µM] | IC50 (His-EGF(A)-Fc; [2]) [µM] | inhibition in the PCSK9Δhelix/Ab20 binding assay (PCSK9Δhelix) | IC50 (PCSK9; Table 8E, additional compounds) [µM] | IC50 (PCSK9Δhelix; Table 8E, additional compounds) [µM] | IC50 (His-EGF(A)-Fc; Table 8E, additional compounds) [µM] |
| --- | --- | --- | --- | --- | --- | --- | --- |
| CC[C@H](C)[C@@H]1NC(=O)[C@H](CCCNC(=N)N)NC(=O)[C@H](CCC(N)=O)NC(=O)[C@H](CC(C)C)NC(=O)[C@H](CC(N)=O)NC(=O)[C@H](Cc2c[nH]c3ccccc23)NC(=O)[C@@H]2CCCN2C(=O)[C@H](CC(C)C)NC(=O)[C@H](CCCNC(=N)N)NC(=O)[C@@H](NC(C)=O)CSSC[C@@H](C(N)=O)NC(=O)CCCCNC1=O [Compound 115] (Ac-CRLPWNLQRI[Ava]C-NH2; disulfide 1-12) | > 50 | > 50 | > 50 | – | – | – | – |
| CC[C@H](C)[C@@H]1NC(=O)[C@H](CCCNC(=N)N)NC(=O)[C@H](CCC(N)=O)NC(=O)[C@H](CC(C)C)NC(=O)[C@H](CC(N)=O)NC(=O)[C@H](Cc2c[nH]c3ccccc23)NC(=O)[C@@H]2CCCN2C(=O)[C@H](CC(C)C)NC(=O)[C@H](CCCNC(=N)N)NC(=O)[C@@H](NC(C)=O)CSSC[C@@H](C(N)=O)NC(=O)CCCCCNC1=O [Compound 116] (Ac-CRLPWNLQRI[Ahx]C-NH2; disulfide 1-12) | > 50 | 31.6 | > 50 | weak but detectable inhibition | – | – | – |
| CC[C@H](C)[C@@H]1NC(=O)[C@H](CCCCNC(=N)N)NC(=O)[C@H](CCC(N)=O)NC(=O)[C@H](CC(C)C)NC(=O)[C@H](CC(N)=O)NC(=O)[C@H](Cc2c[nH]c3ccccc23)NC(=O)[C@@H]2CCCN2C(=O)[C@H](CC(C)C)NC(=O)[C@H](CCCNC(=N)N)NC(=O)[C@@H](NC(C)=O)CSSC[C@@H](C(N)=O)NC(=O)[C@@H]2CCCN2C(=O)[C@H](CC(C)C)NC(=O)CNC1=O [Compound 117] (Ac-CRLPWNLQ[hArg]IGLPC-NH2; disulfide 1-14) | > 50 | 0.334 | > 50 | – | – | – | – |
| CC[C@H](C)[C@@H]1NC(=O)[C@H](CCCNC(=N)N)NC(=O)[C@H](CCC(N)=O)NC(=O)[C@H](CC(C)C)NC(=O)[C@H](CC(N)=O)NC(=O)[C@H](Cc2c[nH]c3ccccc23)NC(=O)[C@@H]2CCCN2C(=O)[C@H](CC(C)C)NC(=O)[C@H](CCCNC(=N)N)NC(=O)[C@@H](NC(C)=O)CSSC[C@@H](C(N)=O)NC(=O)CCCCCCNC1=O [Compound 121] (Ac-CRLPWNLQRI[Ahp]C-NH2; disulfide 1-12) | > 50 | 40.3 | > 50 | weak but detectable inhibition | – | – | – |
| CCCC(=O)N[C@@H](Cc1c[nH]c2ccccc12)C(=O)N[C@@H](CC(N)=O)C(=O)N[C@@H](CC(C)C)C(=O)N[C@H](C(=O)N[C@@H](CCCNC(=N)N)C(=O)N[C@H](C(=O)NCC(=O)N[C@@H](CC(C)C)C(=O)N[C@@H](CC(C)C)C(=O)N[C@@H](CCCNC(=N)N)C(N)=O)[C@@H](C)CC)C(C)C [Compound 123] (Butyryl-WNLVRIGLLR-NH2) | – | – | – | – | ≥ 50 | 18 | ≥ 50 |
| CCCCC(=O)N[C@@H](Cc1c[nH]c2ccccc12)C(=O)N[C@@H](CC(N)=O)C(=O)N[C@@H](CC(C)C)C(=O)N[C@H](C(=O)N[C@@H](CCCNC(=N)N)C(=O)N[C@H](C(=O)NCC(=O)N[C@@H](CC(C)C)C(=O)N[C@@H](CC(C)C)C(=O)N[C@@H](CCCNC(=N)N)C(=O)O)[C@@H](C)CC)C(C)C [Compound 152] (Pentanoyl-WNLVRIGLLR-OH) | – | – | – | – | 43 | 14 | ≥ 50 |
| CCCCC(=O)N[C@@H](Cc1c[nH]c2ccccc12)C(=O)N[C@@H](CC(N)=O)C(=O)N[C@@H](CC(C)C)C(=O)N[C@@H](CCCCN)C(=O)N[C@@H](CCCNC(=N)N)C(=O)N[C@H](C(=O)NCC(=O)N[C@@H](CC(C)C)C(=O)N[C@@H](CC(C)C)C(=O)N[C@@H](CCCNC(=N)N)C(N)=O)[C@@H](C)CC [Compound 159] (Pentanoyl-WNLKRIGLLR-NH2) | – | – | – | – | ≥ 50 | 6.6 | ≥ 50 |
| CCCCC(=O)N[C@@H](Cc1c[nH]c2cc(F)ccc12)C(=O)N[C@@H](CC(N)=O)C(=O)N[C@@H](CC(C)C)C(=O)N[C@H](C(=O)N[C@@H](CCCNC(=N)N)C(=O)N[C@H](C(=O)NCC(=O)N[C@@H](CC(C)C)C(=O)N[C@H](C(=O)N[C@@H](CCCNC(=N)N)C(N)=O)[C@@H](C)O)[C@@H](C)CC)C(C)C [Compound 174] (Pentanoyl-[Trp(6-F)]NLVRIGLTR-NH2) | – | – | – | – | ≥ 50 | 6.2 | ≥ 50 |
| CCCCC(=O)N[C@@H](Cc1c[nH]c2cc(C)ccc12)C(=O)N[C@@H](CC(N)=O)C(=O)N[C@@H](CC(C)C)C(=O)N[C@H](C(=O)N[C@@H](CCCNC(=N)N)C(=O)N[C@H](C(=O)NCC(=O)N[C@@H](CC(C)C)C(=O)N[C@H](C(=O)N[C@@H](CCCNC(=N)N)C(N)=O)[C@@H](C)O)[C@@H](C)CC)C(C)C [Compound 175] (Pentanoyl-[Trp(6-Me)]NLVRIGLTR-NH2) | – | – | – | – | ≥ 50 | 39 | ≥ 50 |
| CCCCC(=O)N[C@@H](Cc1c[nH]c2ccccc12)C(=O)N[C@@H](CC(N)=O)C(=O)N[C@@H](CC(C)C)C(=O)N[C@H](C(=O)N[C@@H](CCCNC(=N)N)C(=O)N[C@H](C(=O)NCC(=O)N[C@@H](CC(C)C)C(=O)N[C@H](C(=O)N[C@@H](CCCNC(=N)N)C(=O)O)[C@@H](C)O)[C@@H](C)CC)C(C)C [Compound 176] (Pentanoyl-WNLVRIGLTR-OH) | – | – | – | – | ≥ 50 | 18 | ≥ 50 |
| CCCCC(=O)N[C@@H](Cc1c[nH]c2ccccc12)C(=O)N[C@@H](CC(N)=O)C(=O)N[C@@H](CC(C)C)C(=O)N[C@H](C(=O)N[C@@H](CCCNC(=N)N)C(=O)N[C@H](C(=O)NCC(=O)N[C@@H](CC(C)C)C(=O)N[C@@H](CC(=O)O)C(=O)N[C@@H](CCCNC(=N)N)C(N)=O)[C@@H](C)CC)C(C)C [Compound 178] (Pentanoyl-WNLVRIGLDR-NH2) | – | – | – | – | ≥ 50 | 18 | ≥ 50 |
| CCCCC(=O)N[C@@H](Cc1c[nH]c2ccccc12)C(=O)N[C@@H](CC(N)=O)C(=O)N[C@@H](CC(C)C)C(=O)N[C@H](C(=O)N[C@@H](CCCNC(=N)N)C(=O)N[C@H](C(=O)NCC(=O)N[C@@H](CC(C)C)C(=O)NCC(=O)N[C@@H](CCCNC(=N)N)C(N)=O)[C@@H](C)CC)C(C)C [Compound 179] (Pentanoyl-WNLVRIGLGR-NH2) | – | – | – | – | ≥ 50 | 11 | ≥ 50 |
| CCCCC(=O)N[C@@H](Cc1c[nH]c2ccccc12)C(=O)N[C@@H](CC(N)=O)C(=O)N[C@@H](CC(C)C)C(=O)N[C@H](C(=O)N[C@@H](CCCNC(=N)N)C(=O)N[C@H](C(=O)NCC(=O)N[C@@H](CC(C)C)C(=O)N[C@@H](C)C(=O)N[C@@H](CCCNC(=N)N)C(N)=O)[C@@H](C)CC)C(C)C [Compound 180] (Pentanoyl-WNLVRIGLAR-NH2) | – | – | – | – | ≥ 50 | 12 | ≥ 50 |
| CCCCC(=O)N[C@@H](Cc1c[nH]c2cc(Cl)ccc12)C(=O)N[C@@H](CC(N)=O)C(=O)N[C@@H](CC(C)C)C(=O)N[C@H](C(=O)N[C@@H](CCCNC(=N)N)C(=O)N[C@H](C(=O)NCC(=O)N[C@@H](CC(C)C)C(=O)N[C@H](C(=O)N[C@@H](CCCNC(=N)N)C(N)=O)[C@@H](C)O)[C@@H](C)CC)C(C)C [Compound 186] (Pentanoyl-[Trp(6-Cl)]NLVRIGLTR-NH2) | – | – | – | – | 31 | 11 | 46 |
| CCCCC(=O)N[C@@H](Cc1c[nH]c2ccccc12)C(=O)N[C@@H](CC(N)=O)C(=O)N[C@@H](CC(C)C)C(=O)N[C@H](C(=O)N[C@@H](CCCCNC(=N)N)C(=O)N[C@H](C(=O)NCC(=O)N[C@@H](CC(C)C)C(=O)N[C@@H](CC(C)C)C(=O)N[C@@H](CCCNC(=N)N)C(=O)O)[C@@H](C)CC)C(C)C [Compound 195, n-BuC(O)-WNLV(homoR)IGLLR] (Pentanoyl-WNLV[hArg]IGLLR-OH) | – | – | – | – | 22 | 1.7 | 45 |
| CC[C@H](C)[C@H](NC(=O)[C@H](CCCCNC(=N)N)NC(=O)[C@H](CCCCN)NC(=O)[C@H](CC(C)C)NC(=O)[C@H](CC(N)=O)NC(=O)[C@H](Cc1c[nH]c2ccccc12)NC(=O)CNC(=O)[C@@H]1CCCN1C(=O)[C@H](Cc1ccccc1)NC(=O)[C@H](C)NC(=O)[C@H](Cc1ccccc1)NC(=O)[C@H](CO)NC(C)=O)C(=O)NCC(=O)N[C@@H](CC(C)C)C(=O)N[C@@H](CC(C)C)C(=O)N[C@@H](CCCNC(=N)N)C(N)=O [Compound 232] (Ac-SFAFPGWNLK[hArg]IGLLR-NH2) | – | – | – | – | 0.93 | 13 | ≥ 50 |
| CCCCC(=O)N[C@@H](Cc1c[nH]c2ccccc12)C(=O)N[C@@H](CC(N)=O)C(=O)N[C@@H](CC(C)C)C(=O)N[C@H](C(=O)N[C@@H](CCCCNC(=N)N)C(=O)N[C@H](C(=O)NCC(=O)N[C@@H](CC(C)C)C(=O)N[C@H](C(=O)N[C@@H](CCCNC(=N)N)C(N)=O)[C@@H](C)O)[C@@H](C)CC)C(C)C [Compound 234, n-BuC(O)-WNLV(homoR)IGLTR-NH2] (Pentanoyl-WNLV[hArg]IGLTR-NH2) | – | – | – | – | ≥ 50 | 1.4 | ≥ 50 |
| CCCCC(=O)N[C@@H](Cc1c[nH]c2ccccc12)C(=O)N[C@@H](CC(N)=O)C(=O)N[C@@H](CC(C)C)C(=O)N[C@H](C(=O)N[C@@H](CCCCNC(=N)N)C(=O)N[C@H](C(=O)NCC(=O)N[C@@H](CC(C)C)C(=O)N[C@H](C(=O)N[C@@H](CCCNC(=N)N)C(=O)O)[C@@H](C)O)[C@@H](C)CC)C(C)C [Compound 235, n-BuC(O)-WNLV(homoR)IGLTR] (Pentanoyl-WNLV[hArg]IGLTR-OH) | – | – | – | – | ≥ 50 | 2.7 | ≥ 50 |
| CC[C@H](C)[C@H](NC(=O)[C@H](CCCCNC(=N)N)NC(=O)[C@@H](NC(=O)[C@H](CC(C)C)NC(=O)[C@H](CC(N)=O)NC(=O)[C@@H](N)Cc1c[nH]c2ccccc12)C(C)C)C(=O)NCC(N)=O [Compound 236, WNLV(homoR)IG-NH2] (H-WNLV[hArg]IG-NH2) | – | – | – | – | ≥ 50 | 22 | ≥ 50 |
